Experimental data taken from patent US8633185B2 (priority 2005, dated 2014).
pIC50: −log10 of the molar value.

Columns and labels:
[1] = tested on: K562 human chronic myeloid leukaemia cells; test: K562 cell line MTT assay, 96 hour exposure; format: cell-based; conditions: 96 hour incubation
Description: In a modification of the above method, 5×10^4 K562 cells (as above) were maintained in RPMI 1640 medium (Sigma) supplemented with 10% foetal calf serum (Sigma) and 20 mM L-glutamine (Sigma) and 190 μL of this solution incubated with specific doses of the drug (10 μL) for 96 hours at 37° C. in 5% CO2. 250 μg/ml (final) MTT was added to each well and the plates incubated for a further 4 hours. Absorbance was read at 450 nm using an Envision plate reader (Applied Biosystems). Data was then analysed by Graphpad PRISM, and an IC50 obtained (defined as the compound concentration needed to reduce the cell population by half).

[2] = tested on: LOXIMVI human melanoma cells; test: LOXIMVI cell line cytotoxicity (resazurin); format: cell-based; conditions: 96 hours, read-out: ZC-423 IC50
Description: (§1) LOXIMVI and OVCAR-5 Cell Lines
(§2) A cell solution containing 5×10^4 cells/ml of either LOXIMVI human melanoma cells or OVCAR-5 human ovarian tumour cells was made up in phenol red free RPMI 1640 (Sigma) supplemented with 10% foetal calf serum (Sigma) and 20 mM L-glutamine (Sigma). 190 μl cell solution was added to each well of a fluorescence compatible polystyrene 96 well cell culture plate (Greiner BioOne), from columns 2 to 11. 190 μl culture media was added to columns 1 and 12. Plates were incubated overnight at 37° C. in 5% CO2. Compounds were dissolved in 100% Biotech grade DMSO (Sigma) and subsequently diluted to stock concentrations in 2% DMSO. 100 μl of the stock concentrations were serially diluted 1 in 3 in 2% DMSO in intermediate polystyrene 96 well cell culture plates (Nunc). 2% DMSO was placed in the outer columns for use as blanks, and in the 2nd or 11th column (depending on whether the top or bottom of an assay plate was to be used) for use as a control. The entire row of the intermediate plate was then transferred in triplicate, 10 μl per well, to either rows B to D or E to G of the cell plate. […] Fluorescence was read at 530-570 nm excitation, 580-620 nm emission using an Envision plate reader (Applied Biosystems). Data was then analysed by Graphpad PRISM, and an IC50 obtained (defined as the compound concentration needed to reduce the cell population by half).

[3] = tested on: OVCAR-5 human ovarian tumour cells; test: OVCAR-5 cell line cytotoxicity (resazurin); format: cell-based; conditions: 96 hours, read-out: ZC-423 IC50
Description: as §1, §2

[4] = tested on: LOX IMVI (human melanomas); test: Anti tumour activity, LOX IMVI xenograft in nude mice; format: in vivo
Description: LOX IMVI (human melanomas) were grown subcutaneously in nude mice (B&K Universal, Hull, UK). Tumours were transplanted as single tumour fragments in the flank by trocar. Groups of 8 tumour-bearing mice were treated with ZC423 at the previously established single intravenous (iv) maximum tolerated dose (MTD) of 3 mgkg^−1 using 5% DMA/saline as the vehicle. Control mice (n=8) were treated with vehicle alone.
Treatment commenced when tumours could be reliably measured by calipers (mean dimensions 4×4 mm) and therapeutic effects were assessed by daily caliper measurements of the tumour and mouse weights. Tumour volumes were determined by the formula a^2×b/2 where a is the smaller and b is the larger diameter of the tumour. The results are shown in FIG. 1 as a graphs of relative tumour volume against time (▪ ZC423; ♦ Control—solvent alone).

[5] = Single intravenous maximum tolerated dose; format: in vivo, mice; conditions: previously established
[6] = Solubility in water; format: physicochemical; conditions: saturated solution in water
Description: Solubility was determined by dissolving the test compound in the minimum amount of water to produce a saturated solution.

[7] = tested on: Closed-circular puc18 DNA linearized with HindIII; test: DNA cross-linking (agarose gel); format: biochemical; conditions: amount required to cross-link 50% of the DNA (XL50), 37° C., pH 7.2
Description: Closed-circular puc18 DNA was linearized with HindIII, then dephosphorylated, and finally 5′ end labeled with [y32P]-ATP using polynucleotide kinase. Reactions containing 10 ng of DNA and drug were carried out in aqueous 1×TEOA (25 mM triethanolamine, 1 mM EDTA, pH 7.2) buffer at a final volume of 50 μL at 37° C. Reactions were terminated by addition of an equal volume of stop solution (0.6 M NaOAc, 20 mM EDTA, 100 μg/mL tRNA) followed by precipitation with ethanol. Following centrifugation of the samples, the supernatants were discarded and the pellets were dried by lyophilization. […]
Electrophoresis was performed on a 0.8% submerged horizontal agarose gel, 20 cm in length for 16 hours at 38-40 V in 1×TAE running buffer (2.42 g Tris Base, 0.372 g EDTA, 0.571 ml glacial acetic acid). […] The film bands were quantitated using a BioRad GS-670 imaging laser densitometer. The percentage of cross-linking was calculated by measuring the total DNA in each lane (the sum of the densities for the double-stranded and single-stranded bands) relative to the amount of density of double-stranded band alone. A dose response curve was derived by plotting drug concentration against the determined percentage level of cross-linked DNA, from which was derived the amount required to cross-link 50% of the DNA (XL50).

[8] = tested on: K562 cells; test: K562 cell line Alamar Blue assay; format: cell-based, human; conditions: 96 hours
Description: K562 Cell Line (Alamar Blue Assay)
The compounds to be tested were dissolved in 100% Biotech grade DMSO (Sigma) and subsequently diluted to stock concentrations of either 2 μM or 200 nM in 2% DMSO. 100 μl of the stock concentrations were serially diluted 1 in 3 in 2% DMSO in intermediate polystyrene 96 well cell culture plates (Nunc). 2% DMSO was placed in the outer columns for use as blanks, and in the 2nd or 11th column (depending on whether the top or bottom of an assay plate was to be used) for use as a control. The entire row of the intermediate plate was then transferred in triplicate to either rows B to D or E to G of a fluorescence compatible polystyrene 96 well cell culture plate (Greiner BioOne); 10 μl to each well. A cell solution containing 5×10^4 cells/ml was made up in phenol red free RPMI 1640 (Sigma) supplemented with 10% foetal calf serum (Sigma) and 20 mM L-glutamine (Sigma). 190 μl cell solution was added to each well of the assay plate, from columns 2 to 11. 190 μl culture media was added to columns 1 and 12. Plates were incubated for 96 hours at 37° C. in 5% CO2. 1 μM (final) rezasurin (converted to fluorescent resofurin by viable cells) was added to each well and the plates incubated for a further 4 hours. Fluorescence was read at 530-570 nm excitation, 580-620 nm emission using an Envision plate reader (Applied Biosystems). Data was then analysed by Graphpad PRISM, and an IC50 obtained (defined as the compound concentration needed to reduce the cell population by half).

[9] = tested on: K562 human chronic myeloid leukaemia cells; test: K562 cell line MTT assay, 1 hour exposure; format: cell-based; conditions: 1 hour incubation
Description: K562 Cell Line (MTT Assay)
K562 human chronic myeloid leukaemia cells were maintained in RPM1 1640 medium supplemented with 10% fetal calf serum and 2 mM glutamine at 37° C. in a humidified atmosphere containing 5% CO2 and were incubated with a specified dose of drug for 1 hour at 37° C. in the dark. The incubation was terminated by centrifugation (5 min, 300 g) and the cells were washed once with drug-free medium. Following the appropriate drug treatment, the cells were transferred to 96-well microtiter plates (10^4 cells per well, 8 wells per sample). Plates were then kept in the dark at 37° C. in a humidified atmosphere containing 5% CO2. The assay is based on the ability of viable cells to reduce a yellow soluble tetrazolium salt, 3-(4,5-dimethylthiazol-2-yl)-2,5-diphenyl-2H-tetrazolium bromide (MTT, Aldrich-Sigma), to an insoluble purple formazan precipitate. Following incubation of the plates for 4 days (to allow control cells to increase in number by approximately 10 fold), 20 μL of MTT solution (5 mg/mL in phosphate-buffered saline) was added to each well and the plates further incubated for 5 h. The plates were then centrifuged for 5 min at 300 g and the bulk of the medium pipetted from the cell pellet leaving 10-20 μL per well. […] The optical density was then read at a wavelength of 550 nm on a Titertek Multiscan ELISA plate reader, and a dose-response curve was constructed. […]

Molecule: 1,1′[[(Propane-1,5-diyl)dioxy]bis[(11aS)-11-sulpho-7-methoxy-2-(4-methoxyphenyl)-1,10,11,11a-tetrahydro-5H-pyrrolo[2,1-c][1,4]benzodiazepin-5-one]] sodium salt [ZC-423]
- pIC50 [1]: 8.82
- pIC50 [2]: 8.32
- pIC50 [3]: 8.28
- activity (relative tumour volume vs control), Mann-Whitney analysis ([4]; single iv 3 mgkg^−1, FIG. 1): statistically significant
- tumour free animals ([4]; single iv 3 mgkg^−1, at 68 days, FIG. 2): all animals were tumour free
- single intravenous (iv) maximum tolerated dose (MTD) [5]: 3 mgkg^−1
- Amount of compound (g) in 1 L water [6]: 11 g in 1 L water

Molecule: COc1cc2c(cc1OCCCOc1cc3c(cc1OC)C(=O)N1C=C(c4ccc5ccccc5c4)C[C@H]1C=N3)N=C[C@@H]1CC(c3ccc4ccccc4c3)=CN1C2=O [Compound 18]
- pIC50 [7]: 6.70

Molecule: COc1cc2c(cc1OCCCOc1cc3c(cc1OC)C(=O)N1C=C(c4cccs4)C[C@H]1C=N3)N=C[C@@H]1CC(c3cccs3)=CN1C2=O [Compound 21]
- pIC50 [7]: 6.30

Molecule: COc1cccc(C2=CN3C(=O)c4cc(OC)c(OCCCOc5cc6c(cc5OC)C(=O)N5C=C(c7cccc(OC)c7)C[C@H]5C=N6)cc4N=C[C@@H]3C2)c1 [Compound 26, 1,1′-[[(Propane-1,3-diyl)dioxy]bis[(11aS)-7-methoxy-2-(3-methoxybenzene)-1,11a-dihydro-5H-pyrrolo[2,1-c][1,4]benzodiazepine-5-one]]]
- pIC50 ([8]; Homo sapiens): > 9.00

Molecule: COc1cccc(C2=CN3C(=O)c4cc(OC)c(OCCCOc5cc6c(cc5OC)C(=O)N5C=C(c7cccc(OC)c7)C[C@H]5C(S(=O)(=O)[O-])N6)cc4NC(S(=O)(=O)[O-])[C@@H]3C2)c1.[Na+].[Na+] (stereo partly drawn) [Compound 27, 1,1′-[[(Propane-1,3-diyl)dioxy]bis[(11aS)-11-sulpho-7-methoxy-2-(3-methoxybenzene)-1, 10,11,11a-tetrahydro-5H-pyrrolo[2,1-c][1,4]benzodiazepin-5-one]] sodium salt]
- pIC50 [8]: > 9.00
- Amount of compound (g) in 1 L water [6]: 9 g in 1 L water

Molecule: COc1cc2c(cc1OCCCOc1cc3c(cc1OC)C(=O)N1C=C(c4ccc5c(c4)OCO5)C[C@H]1C=N3)N=C[C@@H]1CC(c3ccc4c(c3)OCO4)=CN1C2=O [Compound 29]
- pIC50 ([8]; Homo sapiens): > 9.00

Molecule: COc1cc2c(cc1OCCCOc1cc3c(cc1OC)C(=O)N1C=C(c4ccc(F)cc4)C[C@H]1C=N3)N=C[C@@H]1CC(c3ccc(F)cc3)=CN1C2=O [Compound 32, 1,1′-[[(Propane-1,3-diyl)dioxy]bis[(11aS)-7-methoxy-2-(4-fluorobenzene)-1,11a-dihydro-5H-pyrrolo[2,1-c][1,4]benzodiazepine-5-one]]]
- pIC50 ([8]; Homo sapiens): > 9.00

Molecule: COc1cc2c(cc1OCCCOc1cc3c(cc1OC)C(=O)N1C=C(c4ccc(F)cc4)C[C@H]1C(S(=O)(=O)[O-])N3)NC(S(=O)(=O)[O-])[C@@H]1CC(c3ccc(F)cc3)=CN1C2=O.[Na+].[Na+] (stereo partly drawn) [Compound 33, 1,1′-[[(Propane-1,3-diyl)dioxy]bis[(11aS)-11-sulpho-7-methoxy-2-(4-fluorobenzene)-1, 10,11,11a-tetrahydro-5H-pyrrolo[2,1-c][1,4]benzodiazepin-5-one]] sodium salt]
- pIC50 [8]: > 9.00
- Amount of compound (g) in 1 L water [6]: 3 g in 1 L water

Molecule: COc1ccc(C2=CN3C(=O)c4cc(OC)c(OCCCOc5cc6c(cc5OC)C(=O)N5C=C(c7ccc(OC)cc7)C[C@H]5C=N6)cc4N=C[C@@H]3C2)cc1 [ZC-207, 1,1′-[[(Propane-1,3-diyl)dioxy]bis[(11aS)-7-methoxy-2-(p-methoxybenzene)-1,11a-dihydro-5H-pyrrolo[2,1-c][1,4]benzodiazepine-5-one]]]
- pIC50 [9]: 8.28
- Amount of compound (g) in 1 L water [6]: Insoluble
